For test [1], the target named is c-MET kinase (Homo sapiens (Human), UniProt P08581). Description: Assay of small molecular compounds for inhibiting the activity of c-MET kinase (LANCE TR-FRET). Format: biochemical. The note with it: read-out: CMET IC50. In outline: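 LANCE TR-FRET assay with c-MET at 1 nM final after a 5 min room-temperature preincubation with compound (11-point, 3-fold series, 2500–0.042 nM final, 4% DMSO). ULight-JAK-1 (Tyr1023) peptide (100 nM final) and ATP (10 μM final) reacted 60 min in the dark. Inhibition was taken relative to controls, then IC50 fitted.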
Chain of c-MET kinase (P08581 25-1390): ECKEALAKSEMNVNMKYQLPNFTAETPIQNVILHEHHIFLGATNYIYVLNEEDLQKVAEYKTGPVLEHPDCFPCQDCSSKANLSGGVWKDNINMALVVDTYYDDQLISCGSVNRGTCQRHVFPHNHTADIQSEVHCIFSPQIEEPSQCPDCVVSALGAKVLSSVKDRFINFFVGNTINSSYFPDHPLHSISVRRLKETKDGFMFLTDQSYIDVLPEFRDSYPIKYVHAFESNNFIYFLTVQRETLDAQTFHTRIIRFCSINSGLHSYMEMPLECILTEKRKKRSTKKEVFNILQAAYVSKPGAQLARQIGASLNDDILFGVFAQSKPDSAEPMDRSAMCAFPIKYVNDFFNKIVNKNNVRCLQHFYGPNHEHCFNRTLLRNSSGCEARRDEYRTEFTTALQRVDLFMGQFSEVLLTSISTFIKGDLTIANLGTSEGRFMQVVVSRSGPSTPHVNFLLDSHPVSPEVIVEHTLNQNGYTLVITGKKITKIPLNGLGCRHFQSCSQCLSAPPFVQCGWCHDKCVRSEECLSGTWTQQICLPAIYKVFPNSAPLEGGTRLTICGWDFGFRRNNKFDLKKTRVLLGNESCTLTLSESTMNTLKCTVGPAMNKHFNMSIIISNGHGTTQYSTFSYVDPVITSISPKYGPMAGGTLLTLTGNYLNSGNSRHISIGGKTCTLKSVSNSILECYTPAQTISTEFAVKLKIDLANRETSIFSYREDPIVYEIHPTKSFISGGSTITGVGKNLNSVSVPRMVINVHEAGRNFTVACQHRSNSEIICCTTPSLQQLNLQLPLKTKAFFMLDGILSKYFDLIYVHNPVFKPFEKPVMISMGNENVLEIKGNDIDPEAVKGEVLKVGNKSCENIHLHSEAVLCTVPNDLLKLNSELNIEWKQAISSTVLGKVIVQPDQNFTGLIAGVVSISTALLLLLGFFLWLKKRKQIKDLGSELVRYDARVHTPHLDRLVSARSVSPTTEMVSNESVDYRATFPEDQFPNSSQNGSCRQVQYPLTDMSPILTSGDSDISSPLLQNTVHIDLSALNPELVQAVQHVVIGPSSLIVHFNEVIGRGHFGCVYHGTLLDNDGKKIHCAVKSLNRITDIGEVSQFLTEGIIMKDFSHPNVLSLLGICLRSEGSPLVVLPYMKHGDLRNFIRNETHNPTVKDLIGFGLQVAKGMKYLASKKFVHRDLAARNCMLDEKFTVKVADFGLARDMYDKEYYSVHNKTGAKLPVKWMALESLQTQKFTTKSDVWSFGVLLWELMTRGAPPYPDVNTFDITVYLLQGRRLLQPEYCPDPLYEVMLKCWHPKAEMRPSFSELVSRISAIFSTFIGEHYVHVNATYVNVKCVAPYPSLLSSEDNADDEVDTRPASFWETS
Background: TR-FRET usually uses a lanthanide donor and a delayed reading to cut background.

The test system of test [2] is Ba/F3-AXL cells. Description: Assay for inhibiting the proliferation of Ba/F3-AXL cells (CCK-8). The following applies: 72 hours of incubation, medium with 100 ng/mL hGas6, CCK-8. The format is cell-based. The procedure:
The values were then imported into Graphpad Prism 5 software for curve fitting, and IC50 was calculated.

Test [3] concerns MHCC97H cells. Description: Assay for inhibiting the proliferation of MHCC97H cells (CCK-8). The note with it: Homo sapiens. Format: cell-based. In outline:
(§1)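 Cells seeded in 96-well plates overnight, then exposed 72 h to 9 three-fold dilutions of compound (0.25% DMSO final). Viability by CCK-8 (1-2 h at 37° C., OD 450 nm), survival normalized to untreated and cell-free blanks; IC50 by curve fitting.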

In test [4] the test system is Ba/F3 LMNA-NTRK1 cells. Description: Assay for inhibiting the proliferation of Ba/F3 LMNA-NTRK1 cells (CCK-8). The note with it: Mus musculus, BaF3. The format is cell-based. In outline:
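Cells were seeded and cultured overnight, then treated with graded compound concentrations (final DMSO 0.25%) for 72 h. CCK-8 was added for 1–2 h at 37 °C and OD450 read. Survival was normalised to untreated and cell-free blank wells, and IC50 was fitted.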

Test [5] concerns EBC1 cells. Description: Assay for inhibiting the proliferation of EBC1 cells (CCK-8). The format is cell-based. The following applies: Homo sapiens, EBC-1. In outline:
as §1

By IC50 is commonly meant the concentration that gives 50% inhibition. In the case of `CCOc1ccn(-c2ccc(F)cc2)c(=O)c1C(=O)Nc1ccc(Oc2ccnc3cc(OCCCN4CCC(C)(C)CC4)c4c(c23)OCCO4)c(F)c1` [Example 67, N-(4-((5-(3-(4,4-dimethylpiperidin-1-yl)propoxy)-2,3-dihydro-[1,4]dioxino[2,3-f]quinolin-10-yl)oxy)-3-fluorophenyl)-4-ethoxy-1-(4-fluorophenyl)-2-oxo-1,2-dihydropyridine-3-carboxamide], the IC50 in test [1] is no more than 50 nM; in test [2] it was less than 50 nM; in test [3] it was no more than 50 nM; in test [4] it was less than 50 nM; in test [5] it was no more than 50 nM.

Consider `COCCn1cc(C(=O)Nc2ccc(Oc3ccnc4cc(OC)c5c(c34)OCCO5)c(F)c2)c(=O)n(-c2ccc(F)cc2)c1=O` [Example 46, N-(3-fluoro-4-((5-methoxy-2,3-dihydro-[1,4]dioxino[2,3-f]quinolin-10-yl)oxy)phenyl)-3-(4-fluorophenyl)-1-(2-methoxyethyl)-2,4-dioxo-1,2,3,4-tetrahydropyrimidine-5-carboxamide], for which the IC50 is no more than 50 nM in test [1]; less than 50 nM in test [2]; no more than 50 nM in test [3]; less than 50 nM in test [4]; no more than 50 nM in test [5].

On to `COc1cc2ncnc(Oc3ccc(NC(=O)c4cccn(-c5ccc(F)cc5)c4=O)cc3F)c2c2c1OCCO2` [Example 1, N-(3-fluoro-4-((5-methoxy-2,3-dihydro-[1,4]dioxino[2,3-f]quinazolin-10-yl)oxy)phenyl)-1-(4-fluorophenyl)-2-oxo-1,2-dihydropyridine-3-carboxamide], for which the IC50 in test [1] is no more than 50 nM; in test [2], less than 50 nM; in test [3], no more than 50 nM; in test [5], 50 to 200 nM.

As for `COc1cc2ncnc(Oc3ccc(NC(=O)c4c(OC)ccn(-c5ccc(F)cc5)c4=O)cc3F)c2c2c1OCCO2` [Example 2, N-(3-fluoro-4-((5-methoxy-2,3-dihydro-[1,4]dioxino[2,3-f]quinazolin-10-yl)oxy)phenyl)-1-(4-fluorophenyl)-4-methoxy-2-oxo-1,2-dihydropyridine-3-carboxamide], the IC50 is no more than 50 nM in test [1], less than 50 nM in test [2], 200 to 1000 nM in test [3] and 50 to 200 nM in test [5].

In the case of `CCOc1ccn(-c2ccc(F)cc2)c(=O)c1C(=O)Nc1ccc(Oc2ccnc3cc(OC4CCOCC4)c4c(c23)OCCO4)c(F)c1` [Example 66, N-(4-((5-((tetrahydropyran-4-yl)oxy)-2,3-dihydro-[1,4]dioxino[2,3-f]quinolin-10-yl)oxy)-3-fluorophenyl)-4-ethoxy-1-(4-fluorophenyl)-2-oxo-1,2-dihydropyridine-3-carboxamide], the IC50 in test [1] is no more than 50 nM; in test [2] it was less than 50 nM; in test [3] it was no more than 50 nM; in test [4], 50 to 200 nM; in test [5], no more than 50 nM.

On to `CCOc1cc2nccc(Oc3ccc(NC(=O)c4c(OCC)ccn(-c5ccc(F)cc5)c4=O)cc3F)c2c2c1OCCO2` [Example 62, N-(4-((5-ethoxy-2,3-dihydro-[1,4]dioxino[2,3-f]quinolin-10-yl)oxy)-3-fluorophenyl)-4-ethoxy-1-(4-fluorophenyl)-2-oxo-1,2-dihydropyridine-3-carboxamide], for which the IC50 is no more than 50 nM in test [1]; less than 50 nM in test [2]; no more than 50 nM in test [3]; less than 50 nM in test [4]; no more than 50 nM in test [5].

As for `CCOc1ccn(-c2ccc(F)cc2)c(=O)c1C(=O)Nc1ccc(Oc2ccnc3cc(OCCCOC)c4c(c23)OCCO4)c(F)c1` [Example 55, N-(4-((5-(3-methoxypropoxy)-2,3-dihydro-[1,4]dioxino[2,3-f]quinolin-10-yl)oxy)-3-fluorophenyl)-4-ethoxy-1-(4-fluorophenyl)-2-oxo-1,2-dihydropyridine-3-carboxamide], the IC50 was no more than 50 nM in test [1]; less than 50 nM in test [2]; no more than 50 nM in test [3]; less than 50 nM in test [4]; no more than 50 nM in test [5].

Take `CCOc1ccn(-c2ccc(F)cc2)c(=O)c1C(=O)Nc1ccc(Oc2ccnc3cc(OCCCN4CCC(C)(N)CC4)c4c(c23)OCCO4)c(F)c1` [Example 68, N-(4-((5-(3-(4-amino-4-methylpiperidin-1-yl)propoxy)-2,3-dihydro-[1,4]dioxino[2,3-f]quinolin-10-yl)oxy)-3-fluorophenyl)-4-ethoxy-1-(4-fluorophenyl)-2-oxo-1,2-dihydropyridine-3-carboxamide]: the IC50 was no more than 50 nM in test [1]; less than 50 nM in test [2]; 200 to 1000 nM in test [3]; 200 to 1000 nM in test [4]; no more than 50 nM in test [5].

Take `CCOc1ccn(-c2ccc(F)cc2)c(=O)c1C(=O)Nc1ccc(Oc2ccnc3cc(OC(C)C)c4c(c23)OCCO4)c(F)c1` [Example 63, N-(4-((5-isopropoxy-2,3-dihydro-[1,4]dioxino[2,3-f]quinolin-10-yl)oxy)-3-fluorophenyl)-4-ethoxy-1-(4-fluorophenyl)-2-oxo-1,2-dihydropyridine-3-carboxamide]: the IC50 in test [1] was no more than 50 nM; in test [2], less than 50 nM; in test [3] it was 50 to 200 nM; in test [5], no more than 50 nM.

As to `CCOc1ccn(-c2ccc(F)cc2)c(=O)c1C(=O)Nc1ccc(Oc2ccnc3cc(OCCCN4CCN(C(C)=O)CC4)c4c(c23)OCCO4)c(F)c1` [Example 50, N-(4-((5-(3-(4-acetyl-piperazin-1-yl)propoxy)-2,3-dihydro-[1,4]dioxino[2,3-f]quinolin-10-yl)oxy)-3-fluorophenyl)-4-ethoxy-1-(4-fluorophenyl)-2-oxo-1,2-dihydropyridine-3-carboxamide], the IC50 is no more than 50 nM in test [1]; less than 50 nM in test [2]; no more than 50 nM in test [3]; less than 50 nM in test [4]; no more than 50 nM in test [5].

Turning to `CCOc1ccn(-c2ccc(F)cc2)c(=O)c1C(=O)Nc1ccc(Oc2ccnc3cc(OCCCC#N)c4c(c23)OCCO4)c(F)c1` [Example 57, N-(4-((5-(3-cyanopropoxy)-2,3-dihydro-[1,4]dioxino[2,3-f]quinolin-10-yl)oxy)-3-fluorophenyl)-4-ethoxy-1-(4-fluorophenyl)-2-oxo-1,2-dihydropyridine-3-carboxamide], the IC50 in test [1] is no more than 50 nM; in test [2], less than 50 nM; in test [3] it was no more than 50 nM; in test [4], less than 50 nM; in test [5], no more than 50 nM.

Turning to `COc1cc2nccc(Oc3ccc(NC(=O)c4cn(CCO)c(=O)n(-c5ccc(F)cc5)c4=O)cc3F)c2c2c1OCCO2` [Example 45, N-(3-fluoro-4-((5-methoxy-2,3-dihydro-[1,4]dioxino[2,3-f]quinolin-10-yl)oxy)phenyl)-3-(4-fluorophenyl)-1-(2-hydroxyethyl)-2,4-dioxo-1,2,3,4-tetrahydropyrimidine-5-carboxamide], the IC50 in test [1] was no more than 50 nM; in test [2], less than 50 nM; in test [3], 200 to 1000 nM; in test [5], 50 to 200 nM.

For `COc1cn(-c2ccc(F)cc2C)nc1C(=O)Nc1ccc(Oc2ncnc3cc(OCCCN4CCOCC4)c4c(c23)OCCO4)c(F)c1` [Example 11, 1-(4-fluoro-2-methylphenyl)-N-(3-fluoro-4-((5-(3-morpholinopropoxy)-2,3-dihydro-[1,4]dioxino[2,3-f]quinazolin-10-yl)oxy)phenyl)-4-methoxy-1H-pyrazole-3-carboxamide], the IC50 is no more than 50 nM in test [1], 200 to 1000 nM in test [3] and 200 to 1000 nM in test [5].

On to `CCOc1ccn(-c2ccc(F)cc2)c(=O)c1C(=O)Nc1ccc(Oc2ccnc3cc(OCCCN4CCCC4)c4c(c23)OCCO4)c(F)c1` [Example 52, N-(4-((5-(3-(pyrrolidin-1-yl)propoxy)-2,3-dihydro-[1,4]dioxino[2,3-f]quinolin-10-yl)oxy)-3-fluorophenyl)-4-ethoxy-1-(4-fluorophenyl)-2-oxo-1,2-dihydropyridine-3-carboxamide], for which the IC50 in test [1] was no more than 50 nM; in test [2] it was less than 50 nM; in test [3], no more than 50 nM; in test [4], less than 50 nM.

Consider `CCOc1cn(-c2ccc(F)cc2C)nc1C(=O)Nc1ccc(Oc2ncnc3cc(OCCCN4CCOCC4)c4c(c23)OCCO4)c(F)c1` [Example 12, 1-(4-fluoro-2-methylphenyl)-N-(3-fluoro-4-((5-(3-morpholinopropoxy)-2,3-dihydro-[1,4]dioxino[2,3-f]quinazolin-10-yl)oxy)phenyl)-4-ethoxy-1H-pyrazole-3-carboxamide], for which the IC50 in test [1] is no more than 50 nM; in test [3], 50 to 200 nM; in test [5], 200 to 1000 nM.

For `CCOc1ccn(-c2ccc(F)cc2)c(=O)c1C(=O)Nc1ccc(Oc2ncnc3cc(OC)c4c(c23)OCCO4)c(F)c1` [Example 3, N-(3-fluoro-4-((5-methoxy-2,3-dihydro-[1,4]dioxino[2,3-f]quinazolin-10-yl)oxy)phenyl)-1-(4-fluorophenyl)-4-ethoxy-2-oxo-1,2-dihydropyridine-3-carboxamide], the IC50 in test [1] is no more than 50 nM; in test [3], 50 to 200 nM; in test [5], 50 to 200 nM.

The record behind these values is patent US12202835B2, “Substituted aromatic ring-linked dioxinoquinazolines and dioxinoquinolines as kinase inhibitors” (BEIJING SCITECH-MQ PHARMACEUTICALS LIMITED, priority 2018, dated 2025).
